How the values were obtained:
Type in all cases: in vitro ADME, Wistar rat
[1] = test system: upper jejunum tissue segments; experiment: In vitro permeation of octreotide through rat upper jejunum in a diffusion chamber, with and without LITV pulses (FIG. 24); details: 12 Hz monophasic pulses, 1 millisecond, 3 mA, vs control chamber without electrical stimulation, 1 mg/ml donor, 90-minute period
Description: The distance between electrode centers was 10 mm.

[2] = test system: jejunal tissue samples (upper jejunum); experiment: In vitro permeation of octreotide via jejunal tissue in diffusion chamber 500 under LITV pulses (FIGS. 27-36); details: for octreotide permeation vs control group: FIG. 29; for permeation efficiency, effect of electrode material: FIG. 34
Procedure: (§1) The samples were analyzed for their content of octreotide by HPLC-UV 205 nm spectroscopy (Hewlett-Packard 1100). […] A 100×3 mm C18 column was used.

[3] = test system: proximal ileum tissue samples; experiment: In vitro permeation of octreotide via proximal ileum tissue in diffusion chamber 500 under LITV pulses (FIG. 36); details: 18 Hz, 3 mA, 1 millisecond, at 7 minutes, vs non-stimulated control
Procedure: as §1

[4] = test system: distal ileum tissue samples; experiment: In vitro permeation of octreotide via distal ileum tissue in diffusion chamber 500 under LITV pulses (FIG. 36); details: 18 Hz, 3 mA, 1 millisecond, at 7 minutes, vs non-stimulated control
Procedure: as §1

Compound: C[C@@H](O)[C@@H]1NC(=O)[C@H](CCCCN)NC(=O)[C@@H](Cc2c[nH]c3ccccc23)NC(=O)[C@H](Cc2ccccc2)NC(=O)[C@@H](NC(=O)[C@H](N)Cc2ccccc2)CSSC[C@@H](C(=O)N[C@H](CO)[C@@H](C)O)NC1=O [octreotide, octreotide acetate]
- octreotide permeation into acceptor cell [1]: substantially greater increase in octreotide permeation
- permeation efficiency, effect of pulse cycle ([2]; 1 pulse per cycle among 1, 2, 3 pulses per cycle, 18 Hz, 3 mA, 1 millisecond, FIG. 31): greatest permeation efficiency
- transport enhancement ratio (ER), effect of pulse frequency ([2]; 18 Hz among 5, 12, 18, 24, 30, 60 Hz, 1 millisecond, 3 mA, at 30 minutes, FIG. 28): greatest enhancement ratio
- permeation efficiency, effect of cessation of pulse application ([2]; continuous application of pulses vs cessation after 10 minutes (n=1), 18 Hz, 3 mA, 1 millisecond, normalized to control group of FIG. 27, FIG. 35): substantially greater permeation efficiency
- magnitude of permeation efficiency, effect of electrode distance from jejunal tissue ([2]; electrode distance 0.5 mm (n=2) vs 3 mm (n=6), 18 Hz, 3 mA, 1 millisecond, at 15 minutes, FIG. 32): greater at 0.5 mm than at 3 mm
- permeation efficiency, effect of pulse application by intestinal region ([2]; jejunal tissue, 18 Hz, 3 mA, 1 millisecond, at 7 minutes, vs non-stimulated control, FIG. 36): greatest effect of pulse application
- permeation efficiency, trend with number of pulses per cycle ([2]; number of pulses per cycle increased from 1 to 2 to 3 (5-millisecond intervals), 18 Hz, 3 mA, 1 millisecond, FIG. 31): the permeation efficiency decreased
- transport enhancement ratio (ER), effect of pulse duration ([2]; pulse duration 1 millisecond among 0.2, 0.5, 1, 3 milliseconds, 18 Hz, 3 mA, at 15 minutes, FIG. 30): greatest enhancement ratio
- octreotide permeation (permeation efficiency) ([2]; pulses 1 millisecond, 18 Hz, 3 mA (n=6) vs non-stimulated control group (n=3), FIG. 27): substantially enhanced octreotide permeation
- octreotide permeation vs control group ([2]; pulses at 5 Hz (n=1), 1 millisecond, 3 mA): did not yield a higher octreotide permeation
- octreotide permeation vs control group ([2]; pulses at 60 Hz (n=1), 1 millisecond, 3 mA): did not yield a higher octreotide permeation
- permeation efficiency, effect of electrode material ([2]; silver chloride (AgCl) electrodes (n=2), 18 Hz, 3 mA, 1 millisecond): did not increase permeation efficiency
- permeation efficiency, effect of electrode material ([2]; stainless steel (SS316L) electrodes (n=6), 18 Hz, 3 mA, 1 millisecond): substantially increased permeation efficiency
- permeation efficiency, effect of electrode material ([2]; titanium nitride (TN) electrodes (n=3), 18 Hz, 3 mA, 1 millisecond): did not increase permeation efficiency
- permeation efficiency, effect of electrode insulation ([2]; without divider 528, electrodes not insulated from each other (n=1), 18 Hz, 3 mA, 1 millisecond, FIG. 33): did not increase permeation efficiency
- permeation efficiency, effect of pulse application by intestinal region [3]: increased permeation efficiency
- permeation efficiency, effect of pulse application by intestinal region [4]: positive but less pronounced effect

From patent US20080188837A1, “Local Delivery of Drugs or Substances Using Electronic Permeability Increase” (priority 2004, published 2008)
